Data from US4076830A, “Alkylmethanodibenzocycloheptapyrroles” (E. I. Du Pont de Nemours and Company, priority 1976, dated 1978).
Where a name gives a salt, the structure may show the parent alone. Read-outs that look alike come from different tables or passages of the source.

Tests used:
[1] = general tranquilizer activity in mice (exploratory loss, ptosis, catatonia, muscle tone, grip and lift reflexes, pinna twitch reflex, tremors, death); details: mouse, in vivo, po
Protocol: (§1) Groups of five Carworth CF1 S female mice, 16-20 g each, were fasted 16-22 hours before use. The mice were put in opaque plastic "shoe-box" cages 15-30 min. before injection, and then treated orally with 4, 12, 36, 108 and 324 mg/kg of the compound to be tested […] in 1% aqueous distilled water solution of methylcellulose (Methocel®). Each dose was given in a standard volume of 0.45 ml. Observations were made at 0.5, 2 and 24 hours after dosing. ED50 values were calculated for each parameter including death (LD50). The ED50 and LD50 values are the doses at which 50% of the animals would be expected to respond.
(§2) Exploratory Activity - The mouse is placed on a stainless steel wire mesh screen (8 inches × 12 inches, 3 mesh per inch, 174 inch mesh openings) "shoe-box" lid (1 inch high) and is observed for normal activities, such as nose movements, head movements with apparent visual examination of the area, and/or walking around on the screen. Absence of or marked depression of these activities for 5 seconds constitutes loss of exploratory activity.
(§3) Ptosis - The mouse is picked up by the tail and placed on the screen with its head facing the observer. Bilateral eyelid closure of 50% or more two seconds after placement is considered ptosis.
(§4) Catatonia - The mouse is placed with its front paws on the edge of a stainless steel "shoe-box" cover, 1 inch high, covered with adhesive tape. Failure to remove both paws from the cover's edge within 5 seconds constitutes catatonia.
(§5) Muscle Tone - The observer gently strokes the abdominal musculature of the mouse with thumb and forefinger. Flaccidity (or rarely, tenseness) is recorded.
(§6) Grip and Lift Reflexes - The mouse is gently swung by the tail toward a horizontal 12 gauge wire tautly stretched 25 cm above the bench. After the mouse grasps the wire with its forepaws, its posterior end is held directly below the wire. A normal mouse grasps the wire with its forepaws and immediately lifts its hind limbs to the wire. Failure to grasp the wire with the forepaws in both trials constitutes loss of the grip reflex; failure to lift the hind limbs to grasp the wire with at least one hind paw within 5 seconds constitutes loss of the lift reflex.
(§7) Pinna Twitch Reflex - The mouse is placed on the bar 10-20 cm horizontally and 9 cm vertically from a Galton whistle adjusted for 13 kc (5 mm on the whistle scale) and is subjected to several short bursts of sound.
(§8) The ED50 values, i.e., the dose which caused the response in 50% of the mice, are tabulated.

female white mice = test: as above; details: for ED50: Mus musculus, po
Protocol: as §1, §2, §3, §4, §5, §6, §7, §8

[2] = test system: phenylquinone-induced writhing; test: analgesic activity: prevention of phenylquinone-induced writhing in mice; format: in vivo, mouse (Carworth CF1 S female mice); details: oral, phenylquinone 1.1 mg/kg intraperitoneally
From the text: This mouse test is predictive of analgesic response in humans. [E. Siegmund, R. Cadmus and G. Lee, Proc. Soc.
ED50 values were obtained graphically from the data.

[3] = read-out: ED50 Catatonia, oral, mice, observed at 0.5, 2 and 24 hours
[4] = read-out: ED50 Exploratory Loss Visual, oral, mice, observed at 0.5, 2 and 24 hours
[5] = read-out: ED50 Muscle Tone, oral, mice, observed at 0.5, 2 and 24 hours
[6] = read-out: ED50 Ptosis, oral, mice, observed at 0.5, 2 and 24 hours
[7] = read-out: ED50 Reflexes Grip, oral, mice, observed at 0.5, 2 and 24 hours
[8] = read-out: ED50 Reflexes Lift, oral, mice, observed at 0.5, 2 and 24 hours
[9] = read-out: ED50 Reflexes Pinna, oral, mice, observed at 0.5, 2 and 24 hours
[10] = read-out: ED50 Tremors, oral, mice, observed at 0.5, 2 and 24 hours
[11] = oral, mice, observed at 0.5, 2 and 24 hours
[12] = oral, mice, observed at 0.5, 2 and 24 hours, hydrochloride

CC1[C@@H]2c3ccccc3[C@@H]3C[C@@]2(CN1CC1CCCC1)c1ccccc13 (stereo partly drawn) [Example 3g, 2-cyclopentylmethyl-1-methyl-trans-2,3,8,12b-tetrahydro-1H-3a,8-methanodibenzo[3,4:6,7]cyclohepta[1,2-c]pyrrole, hydrochloride]
LD50 at 24 h [1]: > 324 mg/kg
ED50 (female white mice; [3]): 20 mg/kg
ED50 (female white mice; [4]): 7 mg/kg
ED50 (female white mice; [5]): 20 mg/kg
ED50 (female white mice; [6]): 12 mg/kg
ED50 (female white mice; [7]): > 324 mg/kg
ED50 (female white mice; [8]): 36 mg/kg
ED50 (female white mice; [9]): 20 mg/kg
ED50 (female white mice; [10]): > 324 mg/kg
Phenylquinone Analgesia (activity in words) [2]: Active

CC1[C@@H]2c3ccccc3[C@@H]3C[C@@]2(CN1CC1CCCC1)c1ccccc13 (stereo partly drawn) [Example 3h, 2-cyclopentylmethyl-1-methyl-trans-2,3,8,12b-tetrahydro-1H-3a,8-methanodibenzo[3,4:6,7]-cyclohepta[1,2-c]pyrrole hydrochloride]
LD50 (female white mice; 24-hour value, oral, mice): > 324 mg/kg
ED50 Muscle Tone (female white mice; [11]): 20 mg/kg
ED50 Reflexes Grip (female white mice; [11]): > 324 mg/kg
ED50 Tremors (female white mice; [11]): > 324 mg/kg
ED50 Catatonia (female white mice; [12]): 12 mg/kg
ED50 Exploratory Loss Visual (female white mice; [12]): < 4 mg/kg
ED50 Ptosis (female white mice; [12]): 20 mg/kg
ED50 Reflexes Lift (female white mice; [12]): 20 mg/kg
ED50 Reflexes Pinna (female white mice; [12]): 12 mg/kg

CN1C[C@@H]2c3ccccc3[C@]3(C)C[C@@]2(C1)c1ccccc13 (relative stereo) [Example 2, 2,8-Dimethyl-trans-2,3,8,12b-tetrahydro-1H-3a,8-methanodibenzo[3,4:6,7]cyclohepta[1,2-c]pyrrole Hydrochloride]
LD50 at 24 h [1]: 300 mg/kg
ED50 (female white mice; [3]): 60 mg/kg
ED50 (female white mice; [4]): 60 mg/kg
ED50 (female white mice; [5]): 36 mg/kg
ED50 (female white mice; [6]): 60 mg/kg
ED50 (female white mice; [7]): 60 mg/kg
ED50 (female white mice; [8]): 60 mg/kg
ED50 (female white mice; [9]): 60 mg/kg
ED50 (female white mice; [10]): 60 mg/kg
Phenylquinone Analgesia (activity in words) [2]: Active

CN(C)CCCN1c2ccccc2Sc2ccc(Cl)cc21 [Chlorpromazine, reference compound]
LD50 at 24 h [1]: 850 mg/kg
ED50 (female white mice; [3]): 8 mg/kg
ED50 (female white mice; [4]): 7 mg/kg
ED50 (female white mice; [5]): 8 mg/kg
ED50 (female white mice; [6]): 7 mg/kg
ED50 (female white mice; [7]): 240 mg/kg
ED50 (female white mice; [8]): 8 mg/kg
ED50 (female white mice; [9]): 5 mg/kg
ED50 (female white mice; [10]): > 324 mg/kg

C[C@]12C[C@@]3(CN(CC4CCCCC4)C[C@@H]3c3ccccc31)c1ccccc12 (relative stereo) [Example 1, 2-Cyclohexylmethyl-8-methyl-trans-2,3,8,12b-tetra-hydro-1H-3a,8-methanodibenzo[3,4:6,7]cyclohepta[1,2-c]-pyrrole Hydrochloride]
LD50 at 24 h [1]: > 324 mg/kg
ED50 (female white mice; [3]): 109 mg/kg
ED50 (female white mice; [4]): 87 mg/kg
ED50 (female white mice; [5]): 109 mg/kg
ED50 (female white mice; [6]): 87 mg/kg
ED50 (female white mice; [7]): > 324 mg/kg
ED50 (female white mice; [8]): 97 mg/kg
ED50 (female white mice; [9]): 109 mg/kg
ED50 (female white mice; [10]): > 324 mg/kg
ED50 ([2]; Mus musculus, dose blocking writhing in 50% of mice, read-out: ED50 Phenylquinone Analgesia): 30 mg/kg

CN1C(=O)CN=C(c2ccccc2)c2cc(Cl)ccc21 [Diazepam, reference compound]
ED50 (female white mice; [3]): 59 mg/kg
ED50 (female white mice; [4]): 87 mg/kg
ED50 (female white mice; [5]): 89 mg/kg
ED50 (female white mice; [6]): 79 mg/kg
ED50 (female white mice; [7]): 78 mg/kg
ED50 (female white mice; [8]): 4.4 mg/kg
ED50 (female white mice; [9]): 63 mg/kg
ED50 (female white mice; [10]): > 324 mg/kg
